In patent US12480074B2, “Natural and synthetic cannabinoids as fluorescent tags; compositions, methods, and applications” (UNIVERSITY OF CONNECTICUT, priority 2023, dated 2025):

Experiments:
Format in all cases: physicochemical
[1] = Fluorescence viewed under long range UV light of 365 nm; conditions: excitation at 365 nm
Description: In fact, the fluorescence is tied to molecular structure as characterized by ^1H NMR. Phytocannabinoids THC and CBN, are fluorescent, with excitation at 365 nanometer (nm). When fluorescent, the CBN phenolic OH becomes broad meaning that it is in some way connected to the fluorescence of the molecule.

[2] = Fluorescence spectrometer analysis of cannabinoid monomers and adipate dimers
[3] = Fluorescence quenching by phenylenediamine isomers in acetone
Experimental: Experiments were conducted to investigate the fluorescence quenching of cannabinol 2C ether dimer (Example 12) in acetone upon mixing with different isomers of phenylenediamine: ortho-phenylenediamine, meta-phenylenediamine, and para-phenylenediamine. […] This quenching phenomenon can be attributed to the electronic interactions and spatial arrangements of the amino groups in the different phenylenediamine isomers. Both ortho- and para-phenylenediamine have amino groups positioned such that they can effectively engage in electron-donating and resonance interactions with the excited state of cannabinol 2C ether dimer, facilitating non-radiative relaxation pathways such as photoinduced electron transfer (PET).

[4] = Absorption and fluorescence spectroscopy of CBN ether dimers (odd-even effect); conditions: FIG. 9
Description: A change in number of carbon atoms in the linker with respect to the fluorescence was observed. Absorption and fluorescence spectroscopy was used to evaluate this change with the different dimers and the results are provided in FIGS. 9-10. FIG. 9 is a stacked graph of fluorescence spectroscopy for the odd and even series of dimers of Example 12 (x-axis wavelength in nanometers; y-axis intensity) and FIG. 10 is a stacked graph of the absorption spectroscopy for the same dimers (x-axis wavelength in nanometers; y-axis intensity). […] By changing the number of carbons in linkers, it was observed that when the number of carbon spacer is odd (3C and 5C) the fluorescence is higher compared to the even (2C, 4C and 6C), and a distinct hump at higher wavelengths is observed for odd numbered linkers. This change in the spectra with changing the number of carbons is termed here as the “odd-even effect”.

[5] = Stability of CBN observed by NMR
Description: In some embodiments, charge transfer complexes will quench fluorescence, and FRET as it will enhance fluorescence and cause a shift in color. Such adaptations provide, for example, for observation and understanding of a drug as it travels through the body, moves through a cell wall, and binds to a receptor site.

[6] = Fluorescence of CBN-aniline
Experimental: The synthesis of CBN-aniline was conducted via C—O bond using copper catalyst. The product was characterized by ^1H NMR. […] The CBN-aniline can be formed into dimers by linking through the aniline amine.

| Compound | fluorescence (fluorescent or not) [1] | maximum fluorescence, Wavelength (nm) [2] | also measured |
| --- | --- | --- | --- |
| CCCCCc1cc(OC(=O)CCCCC(=O)Oc2cc(CCCCC)cc3c2-c2cc(C)ccc2C(C)(C)O3)c2c(c1)OC(C)(C)c1ccc(C)cc1-2 [CBN adipate dimer, DiCannabinol adipate] | fluorescent properties | 418 nm | fluorescence result compared among the cannabinoids tested ([2]; over THC adipate dimer): most promising results |
| CCCCCc1cc(O)c2c(c1)OC(C)(C)[C@@H]1CCC(C)=C[C@@H]21 [THC, tetrahydrocannabinol, reference compound] | fluorescent |  |  |
| CCCCCc1cc(OCCOc2cc(CCCCC)cc3c2-c2cc(C)ccc2C(C)(C)O3)c2c(c1)OC(C)(C)c1ccc(C)cc1-2 [cannabinol 2C ether dimer, Dicannabinolethyleneether dimer] |  |  | fluorescence quenching with meta-phenylenediamine [3]: minimal quenching; fluorescence quenching with ortho-phenylenediamine [3]: significantly quenched; fluorescence quenching with para-phenylenediamine [3]: significantly quenched |
| CCCCCc1cc(O)c(C/C=C(\C)CCC=C(C)C)c(O)c1 [CBG, cannabigerol] | lacking in fluorescence |  |  |
| CCCCCc1cc(OCCCOc2cc(CCCCC)cc3c2-c2cc(C)ccc2C(C)(C)O3)c2c(c1)OC(C)(C)c1ccc(C)cc1-2 [3C] |  |  | fluorescence, odd carbon spacer compared to the even (2C, 4C and 6C) [4]: higher |
| CCCCCc1cc2c(c(O)c1C(=O)O)[C@@H]1C=C(C)CC[C@H]1C(C)(C)O2 [D-9 THCA, Tetrahydrocannabinolic acid] | fluorescent properties |  |  |
| CCCCCc1cc(OCCCCCOc2cc(CCCCC)cc3c2-c2cc(C)ccc2C(C)(C)O3)c2c(c1)OC(C)(C)c1ccc(C)cc1-2 [5C] |  |  | fluorescence, odd carbon spacer compared to the even (2C, 4C and 6C) [4]: higher |
| CCCCCc1cc(O)c2c(c1)OC(C)(C)c1ccc(C)cc1-2 [CBN, cannabinol] | fluorescent | 385 nm | fluorescence (fluorescent or not) ([1]; listed as Cannabinol (CBN)): fluorescent properties; chemical stability [5]: remains CBN for long durations |
| C=C(C)[C@@H]1CCC(C)=C[C@H]1c1c(O)cc(CCCCC)cc1O [CBD, cannabidiol, reference compound] | lacking in fluorescence |  |  |
| CCCCCc1cc(Oc2ccc(N)cc2)c2c(c1)OC(C)(C)c1ccc(C)cc1-2 [CBN-aniline] |  |  | fluorescent properties [6]: exhibited fluorescent properties |
| CCCCCc1cc(OC(=O)CCCCC(=O)Oc2cc(CCCCC)cc3c2C2CC(C)=CCC2C(C)(C)O3)c2c(c1)OC(C)(C)C1CC=C(C)CC21 (stereo not drawn) [d-8 THC adipate dimer] | fluorescent properties | 384 nm |  |
| CCCCCc1cc(O)c2c(c1)OC(C)(C)[C@@H]1CC=C(C)C[C@@H]21 [D-8 THC] | fluorescent properties | 380 nm |  |
